Assay results taken from PMC3993905 (2014).

Tested on: MMP-2
Assay: active MMP-2
Conditions: human, room temperature, up to 6 h

| cleaved bond | Substance |
| --- | --- |
| G-I, 6 h | Ac-KKYGPQGIAGQYKK-NH2 |
| S-L, 6 h | Ac-KKYIPVSLRSGYKK-NH2 |
